Test results published in patent publication US5763596A, “C-4' modified adenosine kinase inhibitors” (Metabasis Therapeutics, Inc., priority 1996, dated 1998).
Counter-ions that a name gives are not always drawn.

Columns and labels:
Rats = assay: anti-inflammatory activity, carrageenan paw; format: in vivo, rat; settings: 10 mg/kg, swelling after 3 hours; for Carrageenan Paw (% inh) i.p.: 30 min before carrageenan; for Carrageenan Paw (% inh) p.o.: 1 h before carrageenan
Description: Carrageenan (Type λ) was suspended in sterile PBS at 1% (w/v), autoclaved for 30 minutes, and stored at room temperature. Rats were pretreated with vehicle or AK inhibitor (10 mg/kg) by oral gavage or i.p. administration and the volume of the left hind paw was measured using a water displacement plethysmometer (Stoelting Co., Wood Dale, Ill.). One hour after oral treatment or 30 minutes after i.p. treatment, the rats were briefly anaesthetized, and 0.1 ml of the carrageenan solution was injected subcutaneously into the planar surface of the left hind paw. The ensuing paw swelling was measured by plethysmometry after 3 hours. The paw volume in milliliters was subtracted from the pre-injection paw volume. Data are presented in Table 8 as the percent inhibition of paw swelling in AK inhibitor treated animals, compared to vehicle treated control animals.

Rats (male, Simonsen) = assay: formalin paw model; format: in vivo, rat; parameters: concentration or dose not given beside the values; settings: oral, 90 min before formalin
Description: In this assay, injection of formalin, an irritant, into the hindpaw of rats typically evokes a biphasic response of pain-related behaviors. Phase 1 of the response which is brief, lasting approximately 0-5 min post-injection,is followed by a more prolonged phase 2, lasting approximately 10-80 min post-injection. Phase 1 behavior is thought to be a direct effect of the irritant on nociceptors at the injection site while phase 2 behavior is thought to include a hyperalgesic component mediated by sensitization of neuronal elements within the spinal cord. Studies from other laboratories have found the first portion of Phase 2 (sometimes referred to as Phase 2a) to be most responsive to pharmacological manipulation.
Rats (male, Simonsen) weighing between 100-200 g, are used in the present experiments. For screening purposes drugs are administered orally 90 min prior to initiation of formalin test. At designated intervals the animals in groups of 4 are placed individually in a small animal restrainer with the right hindpaw accessible through a hole in the bottom of the restrainer. The formalin paw assay is initiated by the injection using a 30G needle of 50 μl of a 5% formalin solution in saline into the right plantar surface of each hindpaw. The rat is then immediately placed in a separate plexiglass box and scoring (described below) of the animal's behavior is begun at 1.7 min after formalin injection. The instantaneous behavior of each animal in a group of 4 was observed and assigned a score once in each 20 second interval. This sequence is repeated over a 30 min period. The scoring protocol is an adaptation of the method published by Dubuisson and Dennis (Pain 4:161-174, 1977) which assigns a score from 0-3 as follows:
0--no discernible favoring of injected paw, weight evenly distributed
1--injected paw is favored, rests lightly on floor
2--injected paw is elevated
3--injected paw is vigorously licked, bitten or shake
Scores are continuously recorded directly onto an Excel spreadsheet. […] 2) the total number of incidences specifically of licking/biting behavior is summed over Phase 2 and mean values determined from 6 different animals with results expressed as % inhibition compared to vehicle control.

adenosine kinase = adenosine kinase (AK) inhibition; format: biochemical, pig heart or recombinant human; settings: 0.5 μM [U-14C] adenosine, pH 7.0, 20 minutes
Description: Adenosine kinase activity was measured essentially as described by Yamada et al. (Yamada, Y., Goto, H., Ogasawara, N. (1988) Biochim. Biophys. Acta 660, 36-43.) with a few minor modifications. […] Natl. Acad. Sci. […] The reactions were incubated for 20 minutes at […] The assay was quenched upon spotting 30 μL aliquots onto 2 cm^2 pieces of Whatman DE81 anion exchange paper. The papersquares were washed for 3 minutes in 6 L distilled/deionized water to remove the unreacted adenosine. The washed squares were rinsed in 95% ethanol and dried in an oven at 100° C. for 10 minutes. The amount of ^14 C-AMP was quantified by scintillation counting.

male SA rats [1] = assay: rat skin lesion model, inhibition of neutrophil accumulation induced by carrageenan; format: in vivo; settings: p.o., pretreatment 60 min
Description: The dorsal skin of male SA rats was shaved and carrageenan (Type λ) or phosphate-buffered saline was injected intradermally. Three hours later, the injection sites were biopsied and weighed. Neutrophil content of the skin biopsies was measured as the quantity of myeloperoxidase (MPO) present in a tissue homogenate. The excised, weighed skin pieces were placed in 4 ml 0.5% mixed alkyl trimethylammonium bromide and homogenized at the highest speed for 15 seconds in a Polytron homogenizer (Brinkmann Instruments, Westbury, N.Y.). Lipids were extracted by adding 1 ml of dichloromethane to the homogenate, vortexing vigorously, and centrifuging at 1000 g, 5° C. for 15 min. Fifty μl of each supernatant was added in duplicate to a 96 well assay plate, along with dilutions of human myeloperoxidase standard. Potassium phosphate buffer (pH 6.1) containing 0.36 mg/ml of o-dianisidine dihydrochloride and 0.001% hydrogen peroxide was added (200 μl/well), and the absorbance at 450 nm was read after 5 min incubation at room temperature. The myeloperoxidase content of each skin piece was calculated from a standard curve constructed using least-square regression, and expressed as units of MPO/g of tissue.
AK inhibitors were administered orally using polyethylene glycol-400 as vehicle or intraperitoneally using dimethylsulfoxide as vehicle, at indicated time before skin lesion injection. For each experiment, the average of all values from saline-induced lesions was calculated. This baseline value was then subtracted from values obtained from carrageenan-induced lesions. Percent inhibition for AK inhibitors were calculated from these baseline-corrected values.

Female SA rats = assay: liver toxicity, serum SGOT, SGPT and total bilirubin; format: in vivo, rat; parameters: unit not given here; settings: 2 x 37.5 μmol/kg i.v. infusion (total 75 μmol/kg), 12 h after second dose
Description: Female SA rats (150-200 g) were anesthetized with halothane and cannulated via the internal jugular vein. The animals were allowed to recover for 3 days. […] Twelve hours later, an additional 37.5 μmol kg was infused over 40 minutes (total dose=75 μmol/kg). Twelve hours after the second dose, the animals were anesthetized with halothane and exsanguinated through the descending aorta. Serum was prepared and liver enzymes (serum glutamic-oxaloacetic transaminase (SGOT), serum glutamic-pyruvic transaminase (SGPT)) and total bilirubin in the serum samples were determined by a commercial laboratory.

male SA rats [2] = assay: anticonvulsant activity, maximal electroshock (MES) model; format: in vivo; settings: Rattus norvegicus, ip, 1 h before MES; >5 / <5: fewer / more than 50% of animals inhibited at 5 mg/kg in initial screen
Description: The anticonvulsant activity of the tested compounds was evaluated in male SA rats (100-150 g, Simonsen) using the maximal electroshock (MES) model described in Swinyard et al., Antiepileptic Drugs, 3d Ed. at 85-102 (Levy, et al., eds.), NY: Raven Press (1989). The rats were maintained on a 12/12 light/dark cycle in temperature controlled facilities with free access to food and water. For p.o. administration, the animals are fasted overnight, prior to the experiment. One hour prior to seizure testing, the animals were injected interperitoneally (ip) or orally (per os, po) with one of various doses of test compound dissolved in DMSO or PEG 400.
Maximal electroshock seizures (MES) were induced by administering a 150 mA, 60 Hz current for 0.2 seconds via corneal electrodes using a Wahlquist Model H stimulator. […] This endpoint was expressed as the percentage of animals in which the response was inhibited. Typically, compounds were screened initially at one hour following a dose of 5 mg/kg ip. […] The results for exemplary compounds of the invention are set forth in Table 8, expressed as ED50 values.

Molecule | Carrageenan Paw (% inh) i.p. (Rats) [%] | IC50 (adenosine kinase) [nM] | Carrageenan Paw (% inh) p.o. (Rats) [%] | other results
4-N-Phenylamino-5-phenyl-7-(4-C-methyl-β-D-ribofuranosyl)pyrrolo[2,3- d]pyrimidine [#81] | 46 | 45 | – | % Inhibition Phase 1 Composite score (Rats (male, Simonsen); 1.7-5 min post-formalin): 24.8%; % Inhibition Phase 2 Composite score (Rats (male, Simonsen); 10.3-30 min post-formalin): 35.1%; % Inhibition Phase 2. Licking/biting (Rats (male, Simonsen); Phase 2): 67.8%; % inhibition of neutrophil accumulation (male SA rats [1]; 10 mg/kg): 0%; % inhibition of neutrophil accumulation (male SA rats [1]; 20 mg/kg): 26%; % inhibition of neutrophil accumulation (male SA rats [1]; 30 mg/kg): 40%
O[C@@H]1[C@H](O)CO[C@H]1n1cc(-c2ccc(F)cc2)c2c(Nc3ccc(F)cc3)ncnc21 [#29] | – | – | – | average serum Total Bilirubin (Female SA rats): 0.16; average serum content of SGOT (Female SA rats): 130; average serum content of SGPT (Female SA rats): 30
O[C@@H]1[C@H](O)CO[C@H]1n1cc(-c2ccccc2)c2c(Nc3ccc(CCN4CCNCC4)cc3)ncnc21 [#43, 4-N-[4-(2-(1-Piperazino)ethyl)phenyl]amino-5-phenyl-7-(β-D-erythrofuranosyl)pyrrolo[2,3-d]pyrimidine trihydrochloride salt] | 65 | 3.5 | 34 | average serum Total Bilirubin (Female SA rats): 0.1; average serum content of SGOT (Female SA rats): 99; average serum content of SGPT (Female SA rats): 58
OCC1(CO)O[C@@H](n2cc(-c3ccccc3)c3c(Nc4ccccc4)ncnc32)[C@H](O)[C@@H]1O [compound 1] | 3 | 1.2 | 18 | average serum Total Bilirubin (Female SA rats): 0.1; average serum content of SGOT (Female SA rats): 65; average serum content of SGPT (Female SA rats): 53
CN(C)Cc1ccc(Nc2ncnc3c2c(-c2ccccc2)cn3[C@@H]2O[C@@](C)(CO)[C@@H](O)[C@H]2O)cc1 [compound 64] | – | 70 | – | ED50 at 5 mg/kg (male SA rats [2]): > 5 mg/kg
C[C@]1(CO)O[C@@H](n2cc(-c3ccccc3)c3c(Nc4ccccc4)ncnc32)[C@H](O)[C@@H]1O [compound 81] | – | 2000 | – | –
O[C@H]1[C@H](n2cc(-c3ccccc3)c3c(Nc4ccc(F)cc4)ncnc32)OC2(CC2)[C@H]1O [compound 150] | 78 | 0.3 | 80 | ED50 at 5 mg/kg (male SA rats [2]): 0.23 mg/kg; average serum Total Bilirubin (Female SA rats): 1.58; average serum content of SGOT (Female SA rats): 560; average serum content of SGPT (Female SA rats): 155
Nc1ncnc2c1c(I)cn2[C@@H]1OC2(CC2)[C@@H](O)[C@H]1O [compound 175] | – | 600 | – | –
O[C@@H]1[C@H](O)CO[C@H]1n1cc(-c2ccccc2)c2c(Nc3ccc(Cl)cc3)ncnc21 [compound 299] | 20 | 40 | 28 | –
Nc1ncnc2c1c(I)cn2[C@@H]1OC[C@@H](O)[C@H]1O [compound 300] | 90 | 6 | 91 | –
O[C@@H]1[C@H](O)CO[C@H]1n1cc(-c2ccccc2)c2c(Nc3ccc(CCN4CCOCC4)cc3)ncnc21 [compound 301] | 21 | 1 | 39 | –
COC[C@]1(CO)O[C@@H](n2cc(-c3ccccc3)c3c(Nc4ccc(F)cc4)ncnc32)[C@H](O)[C@@H]1O [compound 352] | – | 400 | – | –
COC[C@@]1(CO)O[C@@H](n2cc(-c3ccccc3)c3c(Nc4ccc(F)cc4)ncnc32)[C@H](O)[C@@H]1O [compound 372] | – | 24 | – | ED50 at 5 mg/kg (male SA rats [2]): > 5 mg/kg
NC[C@]1(CO)O[C@@H](n2cc(-c3ccccc3)c3c(Nc4ccc(F)cc4)ncnc32)[C@H](O)[C@@H]1O [compound 392] | – | 1100 | – | –
O[C@@H]1[C@H](O)CO[C@H]1n1nc(-c2ccc(Cl)cc2)c2c(Nc3ccccc3)ncnc21 [compound 432] | 24 | 90 | 15 | ED50 at 5 mg/kg (male SA rats [2]): > 5 mg/kg
